From patent US20260183407A1, “DYRK/CLK PROTACS AND USES THEREOF” (Arizona Board of Regents on Behalf of the University of …, priority 2022, published 2026)

Assays:
DYRK1B [1] = target: T1, DYRK1B (Homo sapiens, UniProt Q9Y463); experiment: KdELECT kinase binding assay (Eurofins), DYRK1B; conditions: 11-point 3-fold dilution series, qPCR readout; read-out: Binding Affinity (Kd) DYRK1B
T1 construct: purchased Eurofins; host or cells: E. coli BL21-derived (T7 phage display) or HEK-293
Method: (§1) KDs were obtained from Eurofins who used the following procedure: Kinase tagged T7 phase strains were prepared in an E. coli host derived from the BL21 strain. E. coli were grown to log-phase and infected with T7 phage and incubated with shaking at 32° C. until lysis. The lysates were centrifuged and filtered to remove cell debris. The remaining kinases were produced in HEK-293 cells and subsequently tagged with DNA for qPCR detection. Streptavidin-coated magnetic beads were treated with biotinylated small molecule ligands for 30 minutes at room temperature to generate affinity resins for kinase assays. The liganded beads were blocked with excess biotin and washed with locking buffer (SeaBlock (Pierce), 1% BSA, 0.05% Tween 20, 1 mM DTT) to remove unbound ligand and to reduce non-specific binding. Binding reactions were assembled by combining kinases, liganded affinity beads, and test compounds in 1× binding buffer (20% SeaBlock, 0.17× PBS, 0.05% Tween 20, 6 mM DTT). Test compounds were prepared as 111X stocks in 100% DMSO. Kds were determined using a 11-poin 3-fold compound dilution series with three DMSO control points. All compounds for Kd measurements are distributed by acoustic transfer (non-contact dispensing) in 100% DMSO. The compounds were then diluted directly into the assays such that the final concentration of DMSO was 0.9%. All reactions performed in polypropylene 384-well plate. Each was a final volume of 0.02 mL. The assay plates were incubated at room temperature with shaking for 1 hour and the affinity beads were washed with wash buffer (1×PBS, 0.05% Tween 20). The beads were then resuspended in elution buffer (1X PBS, 0.05% Tween 20, 0.5 µM nonbiotinylated affinity ligand) and incubated at room temperature with shaking for 30 minutes. The kinase concentration in the eluates was measured by qPCR.

DYRK1A [2] = target: T2, DYRK1A (Homo sapiens, UniProt Q13627); experiment: KdELECT kinase binding assay (Eurofins), DYRK1A; conditions: 11-point 3-fold dilution series, qPCR readout; read-out: Binding Affinity (Kd) DYRK1A
T2 construct: purchased Eurofins; host or cells: E. coli BL21-derived (T7 phage display) or HEK-293
Method: as §1

DYRK1B [3] = target: T1, DYRK1B; experiment: HiBiT split luciferase assay of targeted degradation of DYRK1B in Flp-In T-REx 293 cells; assay type: cell-based; conditions: 300 nM compound, 24 h, HiBiT-tagged DYRK1B in Flp-In T-REx 293 cells, normalized to vehicle; read-out: Relative Degradation at 300 nM DYRK1B
Excerpt: (§2) The Flp-In T-REx 293 Cell Line and the pcDNA5/FRT/TO vector (Invitrogen) were used to generate stable cell clones for tetracyclin-inducible expression of DYRK1A and DYRK1B. These cells contain a single stably integrated Flp recognition target (FRT) site, which allows for site-specific integration of the expression cassette by the Flp (Flippase) recombinase. DYRK1 constructs were designed to contain a C-terminal HiBiT tag for quantitative detection of HiBiT-tagged proteins in cellular lysates with the help a split luciferase assay (Nano-Glo HiBiT Lytic Detection System, Promega). To monitor the targeted degradation of DYRK1A or DYRK1B, cells were seeded in 96-well plates (10,000 cells/per well) and treated with doxycyclineinal concentration 2 μg/ml) to induce DYRK1 expression. Compounds with presumed PROTAC activity were administered 24 h after seeding. After further incubation for 24 h, cells were grossly and microscopically inspected for overt toxicity. Cells were lysed in 100 μL ice-cold passive lysis buffer (PLB, Promega) by orbital shaking (30 min on ice) before lysates were centrifuged in PCR tube (20 min 20,000 g, RT). A 10 μl aliquot of the supernatant was subjected to the HiBiT lytic assay. Luminescence was quantified in an Orion Microplate luminometer (Berthold Detection System, Germany). All compounds were tested in duplicate or triplicate wells (technical replicates) and at least two independent experiments. Relative degradation was calculated by normalization to vehicle-treated control samples.

DYRK1A [4] = target: T2, DYRK1A; experiment: HiBiT split luciferase assay of targeted degradation of DYRK1A in Flp-In T-REx 293 cells; assay type: cell-based; conditions: 300 nM compound, 24 h, HiBiT-tagged DYRK1A in Flp-In T-REx 293 cells, normalized to vehicle; read-out: Relative Degradation at 300 nM DYRK1A
Excerpt: as §2

T1 sequence (Q9Y463 whole entry, species assumed): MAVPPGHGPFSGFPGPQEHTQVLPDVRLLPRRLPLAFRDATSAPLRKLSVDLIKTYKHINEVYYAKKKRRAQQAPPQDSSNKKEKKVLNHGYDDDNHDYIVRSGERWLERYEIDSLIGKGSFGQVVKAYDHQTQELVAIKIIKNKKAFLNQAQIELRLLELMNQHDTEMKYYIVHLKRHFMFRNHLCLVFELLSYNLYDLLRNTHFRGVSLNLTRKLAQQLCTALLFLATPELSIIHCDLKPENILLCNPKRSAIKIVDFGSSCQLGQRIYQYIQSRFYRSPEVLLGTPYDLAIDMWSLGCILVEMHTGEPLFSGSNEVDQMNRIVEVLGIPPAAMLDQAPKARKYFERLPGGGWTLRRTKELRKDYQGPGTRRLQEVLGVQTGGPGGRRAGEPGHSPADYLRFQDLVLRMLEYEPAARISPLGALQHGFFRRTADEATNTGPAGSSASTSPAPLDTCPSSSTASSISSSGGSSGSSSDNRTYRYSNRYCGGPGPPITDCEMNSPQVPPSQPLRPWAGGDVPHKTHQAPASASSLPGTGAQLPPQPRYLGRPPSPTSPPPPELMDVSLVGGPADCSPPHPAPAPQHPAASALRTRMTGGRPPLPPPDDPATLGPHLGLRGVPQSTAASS

Kd (DYRK1B [1])	Kd (DYRK1A [2])	inhibition at 0.3 µM (DYRK1B [3])	inhibition at 0.3 µM (DYRK1A [4])	Structure (SMILES)
< 10 nM	< 10 nM	< 30%	< 30%	Cc1ncsc1-c1ccc(CNC(=O)[C@@H]2C[C@@H](O)CN2C(=O)[C@@H](NC(=O)CCOCCOCCOCCOCCN2CCN(c3ccc(-n4c(C)nc5ccc(-c6ccnc(N)c6)nc54)cc3F)CC2)C(C)(C)C)cc1 [Compound 3, (2S,4R)-1-((S)-1-(4-(4-(5-(2-aminopyridin-4-yl)-2-methyl-3H-imidazo[4,5-b]pyridin-3-yl)-2-fluorophenyl)piperazin-1-yl)-17-(tert-butyl)-15-oxo-3,6,9,12-tetraoxa-16-azaoctadecan-18-oyl)-4-hydroxy-N-(4-(4-methylthiazol-5-yl)benzyl)pyrrolidine-2-carboxamide]
10 to 100 nM	10 to 100 nM		< 30%	Cc1nc2ccc(-c3ccnc(N)c3)nc2n1-c1ccc(N2CCN(C(=O)CCN3CCN(Cc4ccc(CNc5cccc6c5CN(C5CCC(=O)NC5=O)C6=O)cc4)CC3)CC2)c(F)c1 (stereo not drawn) [Compound 11, 3-(4-((4-((4-(3-(4-(4-(5-(2-aminopyridin-4-yl)-2-methyl-3H-imidazo[4,5-b]pyridin-3-yl)-2-fluorophenyl)piperazin-1-yl)-3-oxopropyl)piperazin-1-yl)methyl)benzyl)amino)-1-oxoisoindolin-2-yl)piperidine-2,6-dione]
< 10 nM	< 10 nM		30 to 60%	Cc1nc2ccc(-c3ccnc(N)c3)nc2n1-c1ccc(N2CCN(C(=O)CCCN3CCC(n4cc(CNc5cccc6c5C(=O)N(C5CCC(=O)NC5=O)C6=O)cn4)CC3)CC2)c(F)c1 (stereo not drawn) [Compound 16, 4-(((1-(1-(4-(4-(4-(5-(2-aminopyridin-4-yl)-2-methyl-3H-imidazo[4,5-b]pyridin-3-yl)-2-fluorophenyl)piperazin-1-yl)-4-oxobutyl)piperidin-4-yl)-1H-pyrazol-4-yl)methyl)amino)-2-(2,6-dioxopiperidin-3-yl)isoindoline-1,3-dione]
10 to 100 nM	10 to 100 nM		< 30%	Cc1nc2ccc(-c3ccnc(N)c3)nc2n1-c1ccc(N2CCN(CCOCCOCCOCCOCCNc3cc4c(cc3F)C(=O)N(C3CCC(=O)NC3=O)C4=O)CC2)c(F)c1 (stereo not drawn) [Compound 13, 5-((14-(4-(4-(5-(2-aminopyridin-4-yl)-2-methyl-3H-imidazo[4,5-b]pyridin-3-yl)-2-fluorophenyl)piperazin-1-yl)-3,6,9,12-tetraoxatetradecyl)amino)-2-(2,6-dioxopiperidin-3-yl)-6-fluoroisoindoline-1,3-dione]
10 to 100 nM	< 10 nM		> 60%	Cc1nc2ccc(-c3ccnc(N)c3)nc2n1-c1ccc(N2CCN(CC#Cc3ccc(C4(C(=O)N5CCC(n6cc(CNc7cccc8c7C(=O)N(C7CCC(=O)NC7=O)C8=O)cn6)CC5)CCC4)cc3)CC2)c(F)c1 (stereo not drawn) [Compound 28, 4-(((1-(1-(1-(4-(3-(4-(4-(5-(2-aminopyridin-4-yl)-2-methyl-3H-imidazo[4,5-b]pyridin-3-yl)-2-fluorophenyl)piperazin-1-yl)prop-1-yn-1-yl)phenyl)cyclobutane-1-carbonyl)piperidin-4-yl)-1H-pyrazol-4-yl)methyl)amino)-2-(2,6-dioxopiperidin-3-yl)isoindoline-1,3-dione]
		30 to 50%	> 60%	Cc1nc2ccc(-c3ccnc(N)c3)nc2n1-c1ccc(N2CCN(c3ccc(N4CCC(C(=O)N5CCC(n6cc(CNc7cccc8c7C(=O)N(C7CCC(=O)NC7=O)C8=O)cn6)CC5)CC4)nc3)CC2)c(F)c1 (stereo not drawn) [Compound 26, 4-(((1-(1-(1-(5-(4-(4-(5-(2-aminopyridin-4-yl)-2-methyl-3H-imidazo[4,5-b]pyridin-3-yl)-2-fluorophenyl)piperazin-1-yl)pyridin-2-yl)piperidine-4-carbonyl)piperidin-4-yl)-1H-pyrazol-4-yl)methyl)amino)-2-(2,6-dioxopiperidin-3-yl)isoindoline-1,3-dione]
< 10 nM	< 10 nM		30 to 60%	Cc1nc2ccc(-c3ccnc(N)c3)nc2n1-c1ccc(N2CCN(C(=O)CCCN3CCN(Cc4ccc(CNc5cccc6c5CN(C5CCC(=O)NC5=O)C6=O)cc4)CC3)CC2)c(F)c1 (stereo not drawn) [Compound 12, 3-(4-((4-((4-(4-(4-(4-(5-(2-aminopyridin-4-yl)-2-methyl-3H-imidazo[4,5-b]pyridin-3-yl)-2-fluorophenyl)piperazin-1-yl)-4-oxobutyl)piperazin-1-yl)methyl)benzyl)amino)-1-oxoisoindolin-2-yl)piperidine-2,6-dione]
< 10 nM	< 10 nM		< 30%	Cc1nc2ccc(-c3ccnc(N)c3)nc2n1-c1ccc(N2CCN(C(=O)CCCCN3CCN(Cc4ccc(CNc5cccc6c5CN(C5CCC(=O)NC5=O)C6=O)cc4)CC3)CC2)c(F)c1 (stereo not drawn) [Compound 14, 3-(4-((4-((4-(5-(4-(4-(5-(2-aminopyridin-4-yl)-2-methyl-3H-imidazo[4,5-b]pyridin-3-yl)-2-fluorophenyl)piperazin-1-yl)-5-oxopentyl)piperazin-1-yl)methyl)benzyl)amino)-1-oxoisoindolin-2-yl)piperidine-2,6-dione]
		< 30%	> 60%	Cc1nc2ccc(-c3ccnc(N)c3)nc2n1-c1cc(Cl)c(N2CCN(CC#Cc3ccc(N4CCC(C(=O)N5CCC(n6cc(CNc7cccc8c7C(=O)N(C7CCC(=O)NC7=O)C8=O)cn6)CC5)CC4)nc3)CC2)c(Cl)c1 (stereo not drawn) [Compound 27, 4-(((1-(1-(1-(5-(3-(4-(4-(5-(2-aminopyridin-4-yl)-2-methyl-3H-imidazo[4,5-b]pyridin-3-yl)-2,6-dichlorophenyl)piperazin-1-yl)prop-1-yn-1-yl)pyridin-2-yl)piperidine-4-carbonyl)piperidin-4-yl)-1H-pyrazol-4-yl)methyl)amino)-2-(2,6-dioxopiperidin-3-yl)isoindoline-1,3-dione]
		< 30%	30 to 60%	Cc1nc2ccc(-c3ccnc(N)c3)nc2n1-c1ccc(N2C[C@H]3CN(CC#Cc4ccc(N5CCC(C(=O)N6CCC(n7cc(CNc8cccc9c8C(=O)N(C8CCC(=O)NC8=O)C9=O)cn7)CC6)CC5)nc4)C[C@H]3C2)c(F)c1 (stereo partly drawn) [Compound 22, 4-(((1-(1-(1-(5-(3-((3aR,6aS)-5-(4-(5-(2-aminopyridin-4-yl)-2-methyl-3H-imidazo[4,5-b]pyridin-3-yl)-2-fluorophenyl)hexahydropyrrolo[3,4-c]pyrrol-2 (1H)-yl)prop-1-yn-1-yl)pyridin-2-yl)piperidine-4-carbonyl)piperidin-4-yl)-1H-pyrazol-4-yl)methyl)amino)-2-(2,6-dioxopiperidin-3-yl)isoindoline-1,3-dione]

Structure (SMILES)	Kd (DYRK1B [1])	Kd (DYRK1A [2])	inhibition at 0.3 µM (DYRK1B [3])	inhibition at 0.3 µM (DYRK1A [4])
Cc1nc2ccc(-c3ccnc(N)c3)nc2n1-c1ccc(N2CCN(CC#Cc3ccc(N4CCC(C(=O)N5CCC(n6cc(CNc7cccc8c7C(=O)N(C7CCC(=O)N(C)C7=O)C8=O)cn6)CC5)CC4)nc3)CC2)c(F)c1 (stereo not drawn) [Compound 31, 4-(((1-(1-(1-(5-(3-(4-(4-(5-(2-aminopyridin-4-yl)-2-methyl-3H-imidazo[4,5-b]pyridin-3-yl)-2-fluorophenyl)piperazin-1-yl)prop-1-yn-1-yl)pyridin-2-yl)piperidine-4-carbonyl)piperidin-4-yl)-1H-pyrazol-4-yl)methyl)amino)-2-(1-methyl-2,6-dioxopiperidin-3-yl)isoindoline-1,3-dione]			< 30%	< 30%
